The values below come from publication PMC6877086, “Novel charged sodium and calcium channel inhibitor active against neurogenic inflammation” (eLife, 2019).

By inhibition is commonly meant how much of the control response was suppressed. The low end stands for little suppression, the high end for strong suppression. A word on the Kd: it is a measure of binding affinity in units of concentration.

Where a name gives a salt, the structure may show the parent alone.

Common to all, as to type: cell-based
Assay [1] has as its target T1, Nav1.7 (Homo sapiens, UniProt Q15858).
T1 construct: gene SCN9A; human Nav1.7 stably expressed in HEK cell line
The assay is described as follows: whole-cell patch clamp, use-dependent inhibition at […] Hz.

Assay [2] addresses T2, Cav2.2 (Rattus norvegicus, UniProt Q02294).
T2 construct: gene Cacna1b; rat Cav2.2 stably expressed with β3 and α2δ−1 subunits in tsA201 cell line; with β3 subunit and α2δ−1 subunit
The assay is described as follows: whole-cell patch clamp, Ba2+ current. A general note: The patch-clamp technique gives a direct electrical read-out from membranes.

The target of assay [3] is T1, Nav1.7. Nature of the assay: whole-cell patch clamp, external application; KI estimated from shift in channel availability.
The target of assay [4] is T2, Cav2.2. The assay is described as follows: whole-cell patch clamp, Ba2+ current, external and internal application.

T1 sequence (Q15858 whole entry): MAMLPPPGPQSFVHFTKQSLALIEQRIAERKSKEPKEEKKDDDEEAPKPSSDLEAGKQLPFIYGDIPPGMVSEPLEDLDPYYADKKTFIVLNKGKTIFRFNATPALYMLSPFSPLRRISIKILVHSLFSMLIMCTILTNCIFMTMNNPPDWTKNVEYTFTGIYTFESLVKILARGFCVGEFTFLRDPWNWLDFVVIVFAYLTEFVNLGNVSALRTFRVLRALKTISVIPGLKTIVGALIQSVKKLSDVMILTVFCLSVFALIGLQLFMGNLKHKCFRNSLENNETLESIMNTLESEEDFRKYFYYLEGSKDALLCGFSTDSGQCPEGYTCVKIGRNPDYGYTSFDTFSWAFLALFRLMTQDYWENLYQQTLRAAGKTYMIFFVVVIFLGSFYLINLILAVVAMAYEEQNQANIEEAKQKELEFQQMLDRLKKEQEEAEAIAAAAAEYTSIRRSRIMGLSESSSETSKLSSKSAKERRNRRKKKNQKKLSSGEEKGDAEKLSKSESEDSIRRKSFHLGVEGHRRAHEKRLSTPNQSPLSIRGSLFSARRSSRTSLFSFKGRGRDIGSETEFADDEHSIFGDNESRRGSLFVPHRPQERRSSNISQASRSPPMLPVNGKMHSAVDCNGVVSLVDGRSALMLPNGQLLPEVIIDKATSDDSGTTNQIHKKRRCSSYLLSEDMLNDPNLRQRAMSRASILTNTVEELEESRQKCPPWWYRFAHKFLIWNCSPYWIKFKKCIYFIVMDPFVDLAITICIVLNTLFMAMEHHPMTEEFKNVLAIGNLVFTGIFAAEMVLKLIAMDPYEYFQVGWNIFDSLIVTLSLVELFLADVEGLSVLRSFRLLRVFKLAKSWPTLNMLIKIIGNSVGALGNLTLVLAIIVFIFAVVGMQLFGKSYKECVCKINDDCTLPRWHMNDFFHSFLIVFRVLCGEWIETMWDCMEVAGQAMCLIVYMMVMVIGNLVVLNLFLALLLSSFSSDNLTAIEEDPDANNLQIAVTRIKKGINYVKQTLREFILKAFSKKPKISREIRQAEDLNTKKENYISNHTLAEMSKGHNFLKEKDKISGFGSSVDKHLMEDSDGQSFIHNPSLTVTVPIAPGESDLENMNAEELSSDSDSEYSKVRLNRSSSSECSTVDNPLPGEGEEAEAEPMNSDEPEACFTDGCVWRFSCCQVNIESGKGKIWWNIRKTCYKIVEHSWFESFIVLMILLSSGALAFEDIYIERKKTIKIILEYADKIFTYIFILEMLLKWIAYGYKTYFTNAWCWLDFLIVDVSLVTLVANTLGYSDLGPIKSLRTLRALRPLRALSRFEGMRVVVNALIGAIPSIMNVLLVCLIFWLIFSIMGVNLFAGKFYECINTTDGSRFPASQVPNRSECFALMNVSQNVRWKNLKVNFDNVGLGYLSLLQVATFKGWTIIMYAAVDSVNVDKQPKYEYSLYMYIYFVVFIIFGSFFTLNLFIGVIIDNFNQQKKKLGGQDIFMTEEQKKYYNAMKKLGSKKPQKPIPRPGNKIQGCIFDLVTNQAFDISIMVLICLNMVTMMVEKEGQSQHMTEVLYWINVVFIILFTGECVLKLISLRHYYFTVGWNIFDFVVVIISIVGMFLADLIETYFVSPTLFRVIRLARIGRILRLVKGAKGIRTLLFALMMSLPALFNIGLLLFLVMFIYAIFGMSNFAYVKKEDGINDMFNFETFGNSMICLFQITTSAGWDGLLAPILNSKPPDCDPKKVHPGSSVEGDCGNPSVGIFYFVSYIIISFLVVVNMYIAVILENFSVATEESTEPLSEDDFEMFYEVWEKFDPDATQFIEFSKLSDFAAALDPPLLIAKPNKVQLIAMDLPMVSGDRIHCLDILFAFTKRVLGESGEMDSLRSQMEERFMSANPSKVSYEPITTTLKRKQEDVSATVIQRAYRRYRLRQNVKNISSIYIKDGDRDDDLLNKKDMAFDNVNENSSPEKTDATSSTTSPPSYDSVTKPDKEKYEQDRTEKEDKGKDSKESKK

As to `CCCCN1CCCCC1C(=O)Nc1c(C)cccc1C` (centres unmarked) [bupivacaine], the “whole-cell patch clamp, use-dependent inhibition at 10 Hz” value at Nav1.7 [1] is “current reduced to 22 ± 4% (no drug 77 ± 3%) by 10”.

`COc1ccc(CNC(=O)C(CSCC2CCCC2)NCCC(C)(C)C)cc1` (centres unmarked) [NNCB-2, 3-Cyclopentylmethylsulfanyl-2-(3,3-dimethyl-butylamino)-N-(4-methoxy-benzyl)-propionamide] had an inhibition at 10 µM at Cav2.2 [2] of about 60%. `CCN(CC)CC(=O)Nc1c(C)cccc1C` [lidocaine]: at Nav1.7 [1], the “whole-cell patch clamp, use-dependent inhibition at 10 Hz” value is “current reduced to 57 ± 7% of control (no drug 77 ± 3%) by 30”. With `COc1ccc(CNC(=O)C(CSCC2CCCC2)[N+](C)(C)CCC(C)(C)C)cc1` (centres unmarked) [CNCB-2, [2-Cyclopentylmethylsulfanyl-1-(4-methoxy-benzylcarbamoyl)-ethyl]−(3,3-dimethyl-butyl)-dimethyl-ammonium, chloride salt], the Kd on Nav1.7 [3] was 710 nM. In addition, on Cav2.2 [4], the “whole-cell patch clamp, Ba2+ current, external and internal application” value is reported as “current reduced to 5 ± 2% of control by 100”.
